Read-outs that look alike come from different tables or passages of the source.
How the values were obtained:
[1] = biological target: Wee1 (h) (Homo sapiens, UniProt P30291); assay: Wee1 kinase (h) detection method, [γ-33P]-ATP filter assay; assay type: biochemical
[2] = test system: NCI-H1299 cells; assay: MTT based cell viability assay on NCI-H1299 cells; conditions: Homo sapiens, read-out: IC50, growth inhibition of NCI-H1299 cells
Outline: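 NCI-H1299 cells (1000/well, settled overnight) were exposed for 3 d at 37 °C, 5% CO2, to an eight-point series of 10 μM to 0.01 μM plus DMSO blank, as prepared in DMSO (final DMSO 1‰). MTT (0.5 mg/mL, 4 h) was read at 552/630/690 nm. IC50 came from sigmoidal dose-response fits of survival.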

[3] = test system: LoVo cells; assay: MTT based cell viability assay on LoVo cells; conditions: Homo sapiens, LoVo, 72 h, 3 d, read-out: IC50, growth inhibition of LoVo cells
Outline: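 Inhibition of LoVo proliferation was derived as IC50 from a sigmoidal dose-response fit of cell survival. Readout was MTT (0.5 mg/mL, 4 h) with absorbance at 552/630/690 nm, after 3-day treatment at 37 °C. Eight-point series from 10 μM to 0.01 μM, DMSO control, 1% DMSO final.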

Wee1 (h), sequence (P30291 whole entry): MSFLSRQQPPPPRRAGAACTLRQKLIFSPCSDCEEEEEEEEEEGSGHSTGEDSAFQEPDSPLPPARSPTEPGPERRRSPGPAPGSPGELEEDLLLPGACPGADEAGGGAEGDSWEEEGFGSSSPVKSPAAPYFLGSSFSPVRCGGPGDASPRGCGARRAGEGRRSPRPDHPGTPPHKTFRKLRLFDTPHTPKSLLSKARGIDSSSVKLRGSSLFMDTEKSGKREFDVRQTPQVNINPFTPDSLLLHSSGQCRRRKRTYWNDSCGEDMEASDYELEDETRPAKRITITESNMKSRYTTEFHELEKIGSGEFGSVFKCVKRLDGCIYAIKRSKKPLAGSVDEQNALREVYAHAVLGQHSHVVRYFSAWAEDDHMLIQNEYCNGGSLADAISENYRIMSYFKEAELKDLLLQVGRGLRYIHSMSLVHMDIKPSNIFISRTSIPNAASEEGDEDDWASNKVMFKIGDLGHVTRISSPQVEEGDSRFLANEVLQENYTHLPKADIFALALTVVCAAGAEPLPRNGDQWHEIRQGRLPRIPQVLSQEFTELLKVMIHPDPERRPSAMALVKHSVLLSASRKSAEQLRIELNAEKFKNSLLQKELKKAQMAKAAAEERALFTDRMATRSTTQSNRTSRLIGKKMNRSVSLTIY

Compound	Inh. (%) of Wee1 kinase enzyme activity ([1]; C 0.01 μm compound) [%]	Inh. (%) of Wee1 kinase enzyme activity ([1]; C 0.1 μm compound) [%]	Inh. (%) of Wee1 kinase enzyme activity ([1]; C 1 μm compound) [%]	IC50 ([2]; NCI-H1299 cells) [nM]	IC50 [3] [nM]	IC50 ([2]; NCI-H1299, NCI-H1299 cells) [nM]
C[C@@H]1CN(c2ccc(Nc3ncc4c(n3)N3CCN=C3N(c3c(F)cccc3Cl)C4=O)cc2C(F)(F)F)C[C@H](C)N1C [Example 49, 6-(2-Chloro-6-fluorophenyl)-2-((3-trifluoromethyl-4-((3S,5R)-3,4,5-trimethylpiperazin-1-yl)phenyl)amino)-8,9-dihydroimidazo[1,2-a]pyrimido[5,4-e]pyrimidin-5(6H)-one]	43	86	95	543	96.9	–
CN1CCC(Nc2ccc(Nc3ncc4c(n3)N3CCN=C3N(c3c(F)cccc3Cl)C4=O)cc2)CC1 [Example 112, 6-(2-Chloro-6-fluorophenyl)-2-((4-((1-methylpiperidin-4-yl)amino)phenyl)amino)-8,9-dihydroimidazo[1,2-a]pyrimido[5,4-e]pyrimidin-5(6H)-one]	–	–	97	–	393	481
CN1Cc2cc(Nc3ncc4c(n3)N3CCN=C3N(c3c(F)cccc3Cl)C4=O)ccc2C(C)(C)C1 [Example 9, 6-(2-Chloro-6-fluorophenyl)-2-((2,4,4-trimethyl-1,2,3,4-tetrahydroisoquinolin-7-yl)amino)-8,9-dihydroimidazo[1,2-a]pyrimido[5,4-e]pyrimidin-5(6H)-one]	28	79	100	183	126	–
CN1CCN(c2ccc(Nc3ncc4c(n3)N3CCN=C3N(c3c(Cl)cccc3Cl)C4=O)cc2C(F)(F)F)CC1 [Example 73, 6-(2,6-Dichlorophenyl)-2-((4-(4-methylpiperazin-1-yl)-3-(trifluoromethyl)phenyl)amino)-8,9-dihydroimidazo[1,2-a]pyrimido[5,4-e]pyrimidin-5(6H)-one]	–	–	83	–	194	1430
Cc1cc(Nc2ncc3c(n2)N2CCN=C2N(c2c(F)cccc2Cl)C3=O)ccc1N1C[C@@H](C)N(C(C)C)[C@@H](C)C1 [Example 53, 6-(2-Chloro-6-fluorophenyl)-2-((4-((3S,5R)-4-isopropyl-3,5-dimethylpiperazin-1-yl)-3-methylphenyl)amino)-8,9-dihydroimidazo[1,2-a]pyrimido[5,4-e]pyrimidin-5(6H)-one]	13	82	91	–	85.5	145
CN1CCC(N(C)c2ccc(Nc3ncc4c(n3)N3CCN=C3N(c3c(F)cccc3Cl)C4=O)cc2)CC1 [Example 113, 6-(2-Chloro-6-fluorophenyl)-2-((4-(methyl(1-methylpiperidin-4-yl)amino)phenyl)amino)-8,9-dihydroimidazo[1,2-a]pyrimido[5,4-e]pyrimidin-5(6H)-one]	–	–	96	–	483	672
CN1CCN(c2ccc(Nc3ncc4c(n3)N3CCN=C3N(c3ccc(Cl)cc3)C4=O)cc2)CC1 [Example 85, 6-(4-Chlorophenyl)-2-((4-(4-methylpiperazin-1-yl)phenyl)amino)-8,9-dihydroimidazo[1,2-a]pyrimido[5,4-e]pyrimidin-5(6H)-one]	–	–	17	> 10000	> 100000	–
CN1CCC(Oc2ccc(Nc3ncc4c(n3)N3CCN=C3N(c3c(F)cccc3Cl)C4=O)cc2)CC1 [Example 107, 6-(2-Chloro-6-fluorophenyl)-2-((4-((1-methylpiperidin-4-yl)oxy)phenyl)amino)-8,9-dihydroimidazo[1,2-a]pyrimido[5,4-e]pyrimidin-5(6H)-one]	–	–	95	794	360	–

Reference: patent US11345711B2, “8,9-dihydroimidazo[1,2-a]pyrimido[5,4-e]pyrimidin-5(6H)-ones” (IMPACT THERAPEUTICS (SHANGHAI), INC, priority 2016, dated 2022)
